US20120202701A1, “AN ANTIBODY-GLYCAN COMPLEX TARGETING THE DISIALYL CORE II AND SIALYL LEWIS X STRUCTURES, AND USES THEREOF INVOLVING ANALYSIS OF STEM CELLS OR CANCER CELLS” (GLYKOS FINLAND OY, priority 2009, published 2012)

Columns and labels:
mAb CSLEX = experiment: Glycan microarray analysis (Consortium for Functional Glycomics, printed array version 4.0), glycan binding of mAb CSLEX; settings: mAb CSLEX at 50 μg/ml; average RFU of 6 replicates after removal of highest and lowest values
Method: (§1) mAb CHO-131 was purchased from R&D Systems (MAB996). mAb CSLEX was purchased form BD Biosciences (551344). Glycan microarray analysis was carried out by the Consortium for Functional Glycomics. Glycan microarrays were printed as described (Blixt 2004). Version 4.0 of the printed glycan array was used for analysis. Binding analysis was performed at 50 μg/ml of antibody. Data are reported as average RFU of 6 replicates after removal of highest and lowest values.

mAb CHO-131 = experiment: Glycan microarray analysis (Consortium for Functional Glycomics, printed array version 4.0), glycan binding of mAb CHO-131; settings: for binding to CHO-131 antibody, in words: glycan microarray, as described; for RFU: mAb CHO-131 at 50 μg/ml, average RFU of 6 replicates after removal of highest and lowest values
Method: as §1

RFU (mAb CSLEX) | binding to CHO-131 antibody, in words (mAb CHO-131) | RFU (mAb CHO-131) | SMILES
41 RFU | some binding | 706 RFU | CC(=O)N[C@H]1[C@H](O[C@H]2[C@@H](O)[C@@H](CO)O[C@@H](O[C@H]3[C@H](O[C@@H]4O[C@@H](C)[C@@H](O)[C@@H](O)[C@@H]4O)[C@@H](NC(C)=O)[C@H](O[C@H]4[C@@H](O)[C@@H](CO)O[C@@H](O[C@H]5[C@H](O[C@@H]6O[C@@H](C)[C@@H](O)[C@@H](O)[C@@H]6O)[C@@H](NC(C)=O)[C@H](OCCN)O[C@@H]5CO)[C@@H]4O)O[C@@H]3CO)[C@@H]2O)O[C@H](CO)[C@@H](O[C@@H]2O[C@H](CO)[C@H](O[C@H]3O[C@H](CO)[C@@H](O)[C@H](O)[C@H]3NC(C)=O)[C@H](O)[C@H]2O)[C@@H]1O [compound 337]
27193 RFU |  | 24587 RFU | CC(=O)NC1C(OCCCN)OC(CO)C(OC2OC(CO)C(O)C(OC3OC(CO)C(OC4OC(CO)C(O)C(OC5(C(=O)O)CC(O)C(NC(C)=O)C(C(O)C(O)CO)O5)C4O)C(OC4OC(C)C(O)C(O)C4O)C3NC(C)=O)C2O)C1O (centres unmarked) [compound 246]
29 RFU |  | 1306 RFU | CC(=O)N[C@H]1[C@H](OCCN)O[C@H](COS(=O)(=O)O)[C@@H](O[C@@H]2O[C@H](COS(=O)(=O)O)[C@H](O)[C@H](O)[C@H]2O)[C@@H]1O [compound 287]
29 RFU |  |  | CC(=O)NC1C(OCCCN)OC(COC2(C(=O)O)CC(O)C(NC(C)=O)C(C(O)C(O)CO)O2)C(O)C1O (centres unmarked) [compound 267]
42 RFU |  |  | CC(=O)NC1C(O)CC(OC2C(O)C(CO)OC(OC3C(NC(C)=O)C(OC4C(O)C(CO)OC(OC5C(NC(C)=O)C(OCCN)OC(CO)C5OC5OC(C)C(O)C(O)C5O)C4O)OC(CO)C3OC3OC(C)C(O)C(O)C3O)C2O)(C(=O)O)OC1C(O)C(O)CO (centres unmarked) [compound 326]
29 RFU |  |  | CC(=O)N[C@H]1[C@H](O[C@H]2[C@@H](O)[C@@H](CO)O[C@@H](O[C@@H]3[C@@H](NC(C)=O)[C@H](OCCN)O[C@H](CO)[C@H]3O[C@@H]3O[C@@H](C)[C@@H](O)[C@@H](O)[C@@H]3O)[C@@H]2O)O[C@H](CO)[C@@H](O[C@@H]2O[C@@H](C)[C@@H](O)[C@@H](O)[C@@H]2O)[C@@H]1O[C@@H]1O[C@H](CO)[C@H](O)[C@H](O)[C@H]1O [compound 266]
424 RFU |  |  | CC(=O)N[C@H]1[C@H](OCCN)O[C@H](CO)[C@@H](O[C@@H]2O[C@H](CO[C@]3(C(=O)O)C[C@H](O)[C@@H](NC(C)=O)[C@H]([C@H](O)[C@H](O)CO)O3)[C@H](O)[C@H](O)[C@H]2O)[C@@H]1O [compound 257]
46 RFU |  |  | CC(=O)N[C@H]1[C@H](OCCCN)O[C@H](CO)[C@@H](O[C@@H]2O[C@H](CO)[C@H](O)[C@H](O[C@@H]3O[C@H](CO)[C@H](O)[C@H](O)[C@H]3O)[C@H]2O)[C@@H]1O [compound 291]
45 RFU |  |  | CC(=O)N[C@H]1[C@H]([C@H](O)[C@H](O)CO)O[C@@](OC[C@H]2O[C@@H](O[C@H]3[C@H](O)[C@@H](O)[C@H](OCCN)O[C@@H]3CO)[C@H](O)[C@@H](O)[C@H]2O)(C(=O)O)C[C@@H]1O [compound 261]
39 RFU |  | 5434 RFU | CC(=O)NC1C(OCCCN)OC(CO)C(O)C1OC1OC(C(=O)O)C(O)C(O)C1O (centres unmarked) [compound 299]
4766 RFU |  | 9521 RFU | CC(=O)NC1C(OCCN)OC(CO)C(OC2OC(CO)C(O)C(OC3(C(=O)O)CC(O)C(NC(=O)CO)C(C(O)C(O)CO)O3)C2O)C1OC1OC(C)C(O)C(O)C1O (centres unmarked) [compound 271]
30 RFU |  |  | CC(=O)N[C@H]1[C@H](OCCN)O[C@H](CO)[C@@H](O[C@@H]2O[C@H](CO[C@H]3O[C@H](CO)[C@@H](O[C@@H]4O[C@H](CO)[C@H](O)[C@H](O)[C@H]4O)[C@H](O)[C@H]3NC(C)=O)[C@H](O)[C@H](O)[C@H]2O)[C@@H]1O [compound 295]

Second part, the compound before the results:

SMILES | RFU (mAb CSLEX) | binding to CHO-131 antibody, in words (mAb CHO-131) | RFU (mAb CHO-131)
CC(=O)NC1C(O)CC(OC2C(O)C(OC3C(CO)OC(OCCN)C(O)C3O)OC(CO)C2OC2OC(CO)C(O)C(OC3OC(CO)C(O)C(O)C3O)C2NC(C)=O)(C(=O)O)OC1C(O)C(O)CO (centres unmarked) [compound 135] | 28 RFU |  | 
CC(=O)NC1C(O)CC(OC2C(O)C(CO)OC(OC3C(CO)OC(OCCCN)C(NC(C)=O)C3OC3OC(C)C(O)C(O)C3O)C2O)(C(=O)O)OC1C(O)C(O)CO (centres unmarked) [compound 244] | 19491 RFU | ligand for the antibody | 34336 RFU
CC(=O)NC1C(O)CC(OC2C(O)C(CO)OC(OC3C(CO)OC(OC4C(O)C(CO)OC(OC5C(CO)OC(OC6C(O)C(CO)OC(OC7C(CO)OC(OCCN)C(NC(C)=O)C7OC7OC(C)C(O)C(O)C7O)C6O)C(NC(C)=O)C5OC5OC(C)C(O)C(O)C5O)C4O)C(NC(C)=O)C3OC3OC(C)C(O)C(O)C3O)C2O)(C(=O)O)OC1C(O)C(O)CO (centres unmarked) [compound 242] | 31104 RFU |  | 29505 RFU
CC(=O)NC1C(O)CC(OC2C(O)C(CO)OC(OC3C(CO)OC(OCCN)C(NC(C)=O)C3OC3OC(C)C(O)C(O)C3O)C2O)(C(=O)O)OC1C(O)C(O)CO (centres unmarked) [compound 243] | 13988 RFU | somewhat weaker binding | 20068 RFU
NCCCO[C@@H]1O[C@H](CO)[C@H](O)[C@H](O[C@@H]2O[C@H](CO)[C@H](O)[C@H](O)[C@H]2O)[C@H]1O [compound 137] | 37 RFU |  | 
CC(=O)NC1C(O)CC(OC2C(O)C(COS(=O)(=O)O)OC(OC3C(CO)OC(OCCCN)C(NC(C)=O)C3OC3OC(C)C(O)C(O)C3O)C2O)(C(=O)O)OC1C(O)C(O)CO (centres unmarked) [compound 220] | 22795 RFU |  | 36255 RFU
CC(=O)NC1C(OCCCN)OC(CO)C(OC2OC(COS(=O)(=O)O)C(O)C(OC3(C(=O)O)CC(O)C(NC(C)=O)C(C(O)C(O)CO)O3)C2O)C1O (centres unmarked) [compound 43] | 12653 RFU |  | 22706 RFU
CC(=O)N[C@H]1[C@H](OCCN)O[C@H](CO)[C@@H](O[C@@H]2O[C@H](CO)[C@H](O)[C@H](O[C@H]3O[C@H](CO)[C@H](O)[C@H](O)[C@H]3NC(C)=O)[C@H]2O[C@@H]2O[C@@H](C)[C@@H](O)[C@@H](O)[C@@H]2O)[C@@H]1O [compound 82] | 30 RFU |  | 
CC(=O)N[C@H]1[C@@H](OCCCN)O[C@H](CO[C@@H]2O[C@H](CO)[C@@H](O)[C@H](O)[C@H]2NC(C)=O)[C@H](O[C@@H]2O[C@H](CO)[C@@H](O)[C@H](O)[C@H]2NC(C)=O)[C@@H]1O [compound 177] | 29 RFU |  | 
CC(=O)N[C@H]1[C@H](OCCCN)O[C@H](CO)[C@@H](O[C@@H]2O[C@H](CO)[C@H](O[C@@H]3O[C@H](CO)[C@@H](O)[C@H](O)[C@H]3NC(C)=O)[C@H](O)[C@H]2O)[C@@H]1O [compound 178] | 33 RFU |  | 
CC(=O)N[C@H]1[C@H](O[C@@H]2[C@H](O)[C@@H](O)[C@H](O[C@H]3[C@H](O[C@@H]4O[C@@H](C)[C@@H](O)[C@@H](O)[C@@H]4O)[C@@H](NC(C)=O)[C@H](OCCN)O[C@@H]3CO)O[C@@H]2CO)O[C@H](CO)[C@@H](O[C@@H]2O[C@H](CO)[C@H](O)[C@H](O)[C@H]2O)[C@@H]1O[C@@H]1O[C@@H](C)[C@@H](O)[C@@H](O)[C@@H]1O [compound 144] | 28 RFU |  | 
CC(=O)N[C@H]1[C@H](O[C@@H]2[C@H](O[C@]3(C(=O)O)C[C@H](O)[C@@H](NC(C)=O)[C@H]([C@H](O)[C@@H](CO)O[C@]4(C(=O)O)C[C@H](O)[C@@H](NC(C)=O)[C@H]([C@H](O)[C@@H](CO)O[C@]5(C(=O)O)C[C@H](O)[C@@H](NC(C)=O)[C@H]([C@H](O)[C@@H](CO)O[C@]6(C(=O)O)C[C@H](O)[C@@H](NC(C)=O)[C@H]([C@H](O)[C@H](O)CO)O6)O5)O4)O3)[C@@H](O)[C@H](O[C@H]3[C@H](O)[C@@H](O)[C@H](OCCN)O[C@@H]3CO)O[C@@H]2CO)O[C@H](CO)[C@H](O)[C@@H]1O [compound 215] | 53 RFU |  | 
CC(=O)N[C@H]1[C@H](O[C@H]2[C@@H](O)[C@@H](CO)O[C@@H](OCCCN)[C@@H]2O)O[C@H](CO)[C@@H](O)[C@@H]1O [compound 171] | 106 RFU |  | 
CC(=O)N[C@H]1[C@H](O[C@H]2[C@@H](O)[C@@H](CO)O[C@@H](O[C@H]3[C@H](O)[C@@H](O)[C@H](OCCN)O[C@@H]3CO)[C@@H]2O)O[C@H](CO)[C@@H](O[C@@H]2O[C@H](CO)[C@H](O)[C@H](O)[C@H]2O)[C@@H]1O [compound 155] | 29 RFU |  | 
CC(=O)N[C@H]1[C@H](O[C@H]2[C@@H](O)[C@@H](CO)O[C@H](OCCCN)[C@@H]2NC(C)=O)O[C@H](CO)[C@H](O)[C@@H]1O [compound 91] | 56 RFU |  | 
CC(=O)N[C@H]1[C@H](OCCCN)O[C@H](CO)[C@@H](O[C@@H]2O[C@H](CO)[C@H](O)[C@H](O)[C@H]2O)[C@@H]1O [compound 161] | 34 RFU |  | 
CC(=O)N[C@H]1[C@H](O[C@@H]2[C@H](O)[C@@H](O)[C@H](O[C@H]3[C@H](O)[C@@H](O)[C@H](OCCCN)O[C@@H]3CO)O[C@@H]2CO)O[C@H](CO)[C@H](O)[C@@H]1O[C@@H]1O[C@H](CO)[C@H](O)[C@H](O)[C@H]1O [compound 136] | 58 RFU |  | 
C[C@@H]1O[C@@H](O[C@H]2[C@H](O[C@H]3[C@H](O)[C@@H](O)C(OCCN)O[C@@H]3COS(=O)(=O)O)O[C@H](COS(=O)(=O)O)[C@H](O)[C@@H]2O)[C@@H](O)[C@H](O)[C@@H]1O (some centres unmarked) [compound 213] |  |  | 1100 RFU
CC(=O)NC1C(O)CC(OC2C(O)C(CO)OC(OC3C(CO)OC(OC4C(O)C(CO)OC(OCCCN)C4O)C(NC(C)=O)C3OC3OC(C)C(O)C(O)C3O)C2O)(C(=O)O)OC1C(O)C(O)CO (centres unmarked) [compound 245] | 22997 RFU | third best ligand structure | 33335 RFU
NCCCO[C@@H]1O[C@H](CO[C@@H]2O[C@H](CO)[C@@H](O)[C@H](O)[C@H]2O)[C@@H](O)[C@H](O)[C@H]1O [compound 190] | 28 RFU |  | 
